Measurements reported in ChEMBL document CHEMBL4043199, “Synthesis and optimization of 4,5,6,7-tetrahydrooxazolo[4,5-c]pyridines as potent and orally-active metabotropic glutamate receptor 5 negative allosteric modulators” (Bioorg Med Chem Lett, 2017).
Converted amounts (≈) assume the structure as drawn. The source made the active and inactive calls. The rule behind the calls is not given here.

Key:
[1] = biological target: Metabotropic glutamate receptor 5 (Homo sapiens, UniProt P41594); experiment: Negative allosteric modulation of human recombinant mGluR5 expressed in HEK293 cells assessed as inhibition of glutamate-induced calcium mobilization preincubated for 2 mins followed glutamate addition measured by fluorescence assay; assay type: functional, cell-based
[2] = Metabolic stability in human hepatic microsomes assessed as parent compound remaining at 1 uM after 30 mins in presence of NADPH by LC-MS/MS analysis relative to control; assay type: ADME, Microsome; conditions: liver microsomes, read-out: Stability
[3] = Metabolic stability in rat hepatic microsomes assessed as parent compound remaining at 1 uM after 30 mins in presence of NADPH by LC-MS/MS analysis relative to control; assay type: ADME, Microsome; conditions: liver microsomes, read-out: Stability
[4] = Aqueous solubility of compound at pH 7.4; assay type: physicochemical; conditions: aqueous medium
Cytochrome P450 1A2 = biological target: T1, Cytochrome P450 1A2 (Homo sapiens, UniProt P05177); experiment: Inhibition of CYP1A2 in human liver microsomes using phenacetin as substrate after 10 mins by LC-MS/MS analysis; assay type: ADME
T1 sequence (P05177 whole entry): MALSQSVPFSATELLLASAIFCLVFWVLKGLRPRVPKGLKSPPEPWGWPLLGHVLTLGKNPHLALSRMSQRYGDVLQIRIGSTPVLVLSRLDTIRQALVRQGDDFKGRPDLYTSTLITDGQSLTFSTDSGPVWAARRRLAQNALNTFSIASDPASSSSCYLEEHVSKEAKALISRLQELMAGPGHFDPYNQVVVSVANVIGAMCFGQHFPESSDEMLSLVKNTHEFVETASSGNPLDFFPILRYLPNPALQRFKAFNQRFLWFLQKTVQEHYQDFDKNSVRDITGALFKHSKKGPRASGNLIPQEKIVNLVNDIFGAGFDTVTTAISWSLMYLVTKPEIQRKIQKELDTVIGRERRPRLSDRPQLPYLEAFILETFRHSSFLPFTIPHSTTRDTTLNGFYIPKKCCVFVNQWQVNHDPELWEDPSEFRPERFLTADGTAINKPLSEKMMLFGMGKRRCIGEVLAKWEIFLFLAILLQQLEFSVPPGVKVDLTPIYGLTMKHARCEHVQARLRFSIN

Cytochrome P450 2A6 = biological target: T2, Cytochrome P450 2A6 (Homo sapiens, UniProt P11509); experiment: Inhibition of CYP2A6 in human liver microsomes using coumarin as substrate after 10 mins by LC-MS/MS analysis; assay type: ADME
T2 sequence (P11509 whole entry): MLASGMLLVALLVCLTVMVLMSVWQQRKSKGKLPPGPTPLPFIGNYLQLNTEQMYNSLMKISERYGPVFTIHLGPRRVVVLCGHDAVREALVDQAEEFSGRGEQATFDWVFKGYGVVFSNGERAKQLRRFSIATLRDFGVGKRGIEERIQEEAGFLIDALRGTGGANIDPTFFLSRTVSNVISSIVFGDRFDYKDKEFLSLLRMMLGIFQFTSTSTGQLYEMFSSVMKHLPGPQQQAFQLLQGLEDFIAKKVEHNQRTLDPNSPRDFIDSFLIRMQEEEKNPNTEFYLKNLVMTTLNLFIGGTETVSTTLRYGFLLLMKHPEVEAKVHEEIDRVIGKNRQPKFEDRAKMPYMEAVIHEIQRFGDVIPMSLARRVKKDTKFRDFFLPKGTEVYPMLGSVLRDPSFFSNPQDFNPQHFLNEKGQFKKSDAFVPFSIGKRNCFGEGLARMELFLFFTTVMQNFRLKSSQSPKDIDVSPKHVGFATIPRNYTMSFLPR

Cytochrome P450 2C8 = biological target: T3, Cytochrome P450 2C8 (Homo sapiens, UniProt P10632); experiment: Inhibition of CYP2C8 in human liver microsomes using amodiaquine as substrate after 10 mins by LC-MS/MS analysis; assay type: ADME
T3 sequence (P10632 whole entry): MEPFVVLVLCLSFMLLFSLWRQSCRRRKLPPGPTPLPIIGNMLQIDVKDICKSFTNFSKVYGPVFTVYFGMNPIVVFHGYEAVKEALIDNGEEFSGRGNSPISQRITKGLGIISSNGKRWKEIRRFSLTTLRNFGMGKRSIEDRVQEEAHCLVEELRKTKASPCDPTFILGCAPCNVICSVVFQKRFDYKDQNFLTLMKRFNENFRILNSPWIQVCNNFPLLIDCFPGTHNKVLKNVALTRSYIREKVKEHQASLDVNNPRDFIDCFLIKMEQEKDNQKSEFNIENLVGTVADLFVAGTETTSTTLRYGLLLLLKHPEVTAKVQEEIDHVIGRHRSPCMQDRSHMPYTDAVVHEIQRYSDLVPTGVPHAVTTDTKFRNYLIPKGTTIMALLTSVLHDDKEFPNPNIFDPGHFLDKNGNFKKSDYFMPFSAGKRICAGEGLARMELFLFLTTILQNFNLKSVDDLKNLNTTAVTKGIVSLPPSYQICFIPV

Cytochrome P450 2C9 = Cytochrome P450 2C9 (Homo sapiens, UniProt P11712); experiment: Inhibition of CYP2C9 in human liver microsomes using diclofenac as substrate after 10 mins by LC-MS/MS analysis; assay type: ADME
Cytochrome P450 2C19 = Cytochrome P450 2C19 (Homo sapiens, UniProt P33261); experiment: Inhibition of CYP2C19 in human liver microsomes using (S)-mephenytoin as substrate after 10 mins by LC-MS/MS analysis; assay type: ADME
Cytochrome P450 2D6 = Cytochrome P450 2D6 (Homo sapiens, UniProt P10635); experiment: Inhibition of CYP2D6 in human liver microsomes using bufuralol as substrate after 10 mins by LC-MS/MS analysis; assay type: ADME
Cytochrome P450 3A4 = Cytochrome P450 3A4 (Homo sapiens, UniProt P08684); experiment: Inhibition of CYP3A4 in human liver microsomes using midazolam as substrate after 10 mins by LC-MS/MS analysis; assay type: ADME
[5] = […] of CYP450 in human liver microsomes as substrate after 10 mins by LC-MS/MS analysis; assay type: ADME
[6] = Permeability of the compound at pH 7.4 by PAMPA; assay type: physicochemical; conditions: read-out: permeability
P-gp = experiment: Substrate activity at P-gp (unknown origin) assessed as efflux ratio; assay type: ADME; conditions: human, not told
[7] = biological target: Voltage-gated inwardly rectifying potassium channel KCNH2 (Homo sapiens, UniProt Q12809); experiment: Inhibition of human ERG
Salmonella typhimurium = experiment: Genotoxicity in Salmonella typhimurium by Ames test; assay type: toxicity; conditions: salmonella enterica subsp. enterica serovar typhimurium
[8] = Half life in monkey at 0.5 mg/kg, iv; assay type: ADME, organism-based, Macaca mulatta; conditions: rhesus monkey, in vivo
[9] = Half life in rat at 1 mg/kg, iv; assay type: ADME, organism-based; conditions: in vivo
[10] = Clearance in monkey at 0.5 mg/kg, iv after 24 hrs; assay type: ADME, organism-based, Macaca mulatta; conditions: rhesus monkey, in vivo
[11] = Clearance in rat at 1 mg/kg, iv after 24 hrs; assay type: ADME, organism-based; conditions: in vivo
[12] = Volume of distribution at steady state in monkey at 0.5 mg/kg, iv after 24 hrs; assay type: ADME, organism-based, Macaca mulatta; conditions: rhesus monkey, in vivo, read-out: Vdss
[13] = Volume of distribution at steady state in rat at 1 mg/kg, iv after 24 hrs; assay type: ADME, organism-based; conditions: in vivo, read-out: Vdss
[14] = AUC in rat at 10 mg/kg, po; assay type: ADME, organism-based; conditions: in vivo
[15] = AUC in monkey at 0.5 mg/kg, iv; assay type: ADME, organism-based, Macaca mulatta; conditions: rhesus monkey, in vivo
[16] = AUC in monkey at 10 mg/kg, po; assay type: ADME, organism-based, Macaca mulatta; conditions: rhesus monkey, in vivo
[17] = AUC in rat at 1 mg/kg, iv; assay type: ADME, organism-based; conditions: in vivo
[18] = Cmax in rat at 10 mg/kg, po; assay type: ADME, organism-based; design: dose 10 mg/kg, route oral; conditions: in vivo
[19] = Cmax in monkey at 10 mg/kg, po; assay type: ADME, organism-based, Macaca mulatta; design: dose 10 mg/kg, route oral; conditions: rhesus monkey, in vivo
[20] = Oral bioavailability in rat at 10 mg/kg; assay type: ADME, organism-based; conditions: in vivo
[21] = Oral bioavailability in monkey at 10 mg/kg; assay type: ADME, organism-based, Macaca mulatta; conditions: rhesus monkey, in vivo
Rattus norvegicus [22] = experiment: Ex vivo receptor occupancy at mGluR5 in Sprague-Dawley rat brain po administered daily for 4 days in presence of [3H]-MPEPy by liquid scintillation counting method; assay type: functional, organism-based
Rattus norvegicus [23] = experiment: Ex vivo receptor occupancy at mGluR5 in Sprague-Dawley rat brain at 1 mg/kg, po administered daily for 4 days in presence of [3H]-MPEPy by liquid scintillation counting method relative to control; assay type: functional
[24] = Half life in rat at 0.35 mg/kg, iv; assay type: ADME, organism-based; conditions: in vivo
[25] = Clearance in rat at 0.35 mg/kg, iv after 24 hrs; assay type: ADME, organism-based; conditions: in vivo
[26] = Volume of distribution at steady state in rat at 0.35 mg/kg, iv after 24 hrs; assay type: ADME, organism-based; conditions: in vivo, read-out: Vdss
[27] = AUC in rat at 0.35 mg/kg, iv; assay type: ADME, organism-based; conditions: in vivo
Rattus norvegicus [28] = experiment: Ex vivo receptor occupancy at mGluR5 in Sprague-Dawley rat brain at 0.3 mg/kg, po administered daily for 4 days in presence of [3H]-MPEPy by liquid scintillation counting method relative to control; assay type: functional
Rattus norvegicus [29] = experiment: Antidepressant activity in Wistar rat assessed as decrease in immobility time at 0.3 to 1 mg/kg, po administered 15 mins post training session from day 2 to day 6 measured for 5 mins by forced swimming test; assay type: functional, organism-based
Rattus norvegicus [30] = experiment: Toxicity in rat at 100 mg/kg, po qd administered via gavage for 14 days; assay type: organism-based; conditions: in vivo, 336 h

Cytochrome P450 2C9, sequence (P11712 whole entry): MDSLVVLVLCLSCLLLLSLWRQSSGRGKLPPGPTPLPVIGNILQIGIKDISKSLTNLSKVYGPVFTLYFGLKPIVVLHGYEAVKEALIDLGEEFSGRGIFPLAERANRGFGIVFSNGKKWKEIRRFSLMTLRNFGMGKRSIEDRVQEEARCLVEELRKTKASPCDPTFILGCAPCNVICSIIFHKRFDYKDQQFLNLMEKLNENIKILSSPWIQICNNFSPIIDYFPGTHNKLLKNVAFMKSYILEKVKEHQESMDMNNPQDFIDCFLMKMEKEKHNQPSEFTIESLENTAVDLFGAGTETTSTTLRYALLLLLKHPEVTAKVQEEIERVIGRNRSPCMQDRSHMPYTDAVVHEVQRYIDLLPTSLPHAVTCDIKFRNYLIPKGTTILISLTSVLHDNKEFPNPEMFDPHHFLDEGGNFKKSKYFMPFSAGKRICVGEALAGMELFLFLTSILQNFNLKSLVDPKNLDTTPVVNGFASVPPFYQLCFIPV
Cytochrome P450 3A4, sequence (P08684 whole entry): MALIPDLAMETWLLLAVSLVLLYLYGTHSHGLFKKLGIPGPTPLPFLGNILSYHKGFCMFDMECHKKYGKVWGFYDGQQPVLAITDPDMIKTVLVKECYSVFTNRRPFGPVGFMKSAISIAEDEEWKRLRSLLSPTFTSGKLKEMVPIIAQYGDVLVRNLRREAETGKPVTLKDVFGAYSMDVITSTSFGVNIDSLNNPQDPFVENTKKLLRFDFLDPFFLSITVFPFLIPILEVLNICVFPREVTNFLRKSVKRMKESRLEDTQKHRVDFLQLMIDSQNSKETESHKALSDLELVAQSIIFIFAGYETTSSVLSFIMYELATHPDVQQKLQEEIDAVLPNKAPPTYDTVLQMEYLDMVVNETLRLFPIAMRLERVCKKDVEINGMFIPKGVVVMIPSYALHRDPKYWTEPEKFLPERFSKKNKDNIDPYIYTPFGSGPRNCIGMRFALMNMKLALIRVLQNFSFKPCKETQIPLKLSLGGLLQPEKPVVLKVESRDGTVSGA
Cytochrome P450 2C19, sequence (P33261 whole entry): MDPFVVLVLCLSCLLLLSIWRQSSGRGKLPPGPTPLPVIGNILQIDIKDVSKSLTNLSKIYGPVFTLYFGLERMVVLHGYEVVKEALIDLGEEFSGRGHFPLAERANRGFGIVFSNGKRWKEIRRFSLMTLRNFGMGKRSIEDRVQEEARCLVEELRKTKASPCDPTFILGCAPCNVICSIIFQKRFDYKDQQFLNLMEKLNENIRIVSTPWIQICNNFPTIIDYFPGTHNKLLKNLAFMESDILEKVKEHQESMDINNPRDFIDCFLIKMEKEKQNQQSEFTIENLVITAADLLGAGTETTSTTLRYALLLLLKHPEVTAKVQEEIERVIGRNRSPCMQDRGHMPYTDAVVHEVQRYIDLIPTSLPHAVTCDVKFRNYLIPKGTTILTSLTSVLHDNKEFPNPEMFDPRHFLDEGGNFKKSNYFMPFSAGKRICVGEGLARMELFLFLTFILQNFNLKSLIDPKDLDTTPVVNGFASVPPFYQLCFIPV
Cytochrome P450 2D6, sequence (P10635 whole entry): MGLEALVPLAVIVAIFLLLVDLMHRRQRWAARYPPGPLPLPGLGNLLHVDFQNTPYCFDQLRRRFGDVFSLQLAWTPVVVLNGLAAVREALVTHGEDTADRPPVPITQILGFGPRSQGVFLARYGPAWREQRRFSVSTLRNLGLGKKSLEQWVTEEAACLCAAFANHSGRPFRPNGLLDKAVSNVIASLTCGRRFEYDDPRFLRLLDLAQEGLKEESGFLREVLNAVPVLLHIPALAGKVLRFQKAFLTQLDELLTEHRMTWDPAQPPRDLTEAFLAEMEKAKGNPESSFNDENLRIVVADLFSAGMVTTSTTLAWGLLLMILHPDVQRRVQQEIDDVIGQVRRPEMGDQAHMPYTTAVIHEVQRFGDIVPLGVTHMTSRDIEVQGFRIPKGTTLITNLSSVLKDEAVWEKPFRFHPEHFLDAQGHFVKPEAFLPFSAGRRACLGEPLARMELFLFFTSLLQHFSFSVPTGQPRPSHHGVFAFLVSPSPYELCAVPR
Voltage-gated inwardly rectifying potassium channel KCNH2, sequence (Q12809 whole entry): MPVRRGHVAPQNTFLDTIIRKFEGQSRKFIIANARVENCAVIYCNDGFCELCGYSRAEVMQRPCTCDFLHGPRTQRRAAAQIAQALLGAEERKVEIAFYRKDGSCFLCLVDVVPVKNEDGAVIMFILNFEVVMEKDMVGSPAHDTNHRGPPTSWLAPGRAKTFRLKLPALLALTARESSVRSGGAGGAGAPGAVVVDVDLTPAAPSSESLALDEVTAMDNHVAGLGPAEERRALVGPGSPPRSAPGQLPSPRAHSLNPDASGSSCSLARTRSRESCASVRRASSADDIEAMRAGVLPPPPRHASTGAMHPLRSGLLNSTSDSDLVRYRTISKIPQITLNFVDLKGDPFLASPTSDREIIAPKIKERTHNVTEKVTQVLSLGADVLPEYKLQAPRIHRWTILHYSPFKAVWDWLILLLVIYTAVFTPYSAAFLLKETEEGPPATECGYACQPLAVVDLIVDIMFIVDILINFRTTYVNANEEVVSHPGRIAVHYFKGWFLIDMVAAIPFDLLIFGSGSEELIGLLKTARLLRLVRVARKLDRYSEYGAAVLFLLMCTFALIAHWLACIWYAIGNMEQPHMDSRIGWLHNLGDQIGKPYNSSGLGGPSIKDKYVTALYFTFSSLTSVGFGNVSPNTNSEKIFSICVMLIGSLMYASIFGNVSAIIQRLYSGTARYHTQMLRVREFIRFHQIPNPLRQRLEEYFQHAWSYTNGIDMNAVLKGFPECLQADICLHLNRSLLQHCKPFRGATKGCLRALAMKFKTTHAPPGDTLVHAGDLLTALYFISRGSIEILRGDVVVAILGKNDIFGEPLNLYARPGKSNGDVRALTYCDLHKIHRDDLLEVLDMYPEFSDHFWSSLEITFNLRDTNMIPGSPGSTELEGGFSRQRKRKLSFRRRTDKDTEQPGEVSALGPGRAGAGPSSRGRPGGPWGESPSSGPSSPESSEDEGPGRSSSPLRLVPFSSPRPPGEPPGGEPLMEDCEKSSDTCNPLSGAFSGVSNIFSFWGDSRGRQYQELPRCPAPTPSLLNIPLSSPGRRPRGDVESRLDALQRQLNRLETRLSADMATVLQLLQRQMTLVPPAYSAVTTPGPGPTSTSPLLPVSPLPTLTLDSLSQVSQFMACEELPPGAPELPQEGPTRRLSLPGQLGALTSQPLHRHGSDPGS
Metabotropic glutamate receptor 5, sequence (P41594 whole entry): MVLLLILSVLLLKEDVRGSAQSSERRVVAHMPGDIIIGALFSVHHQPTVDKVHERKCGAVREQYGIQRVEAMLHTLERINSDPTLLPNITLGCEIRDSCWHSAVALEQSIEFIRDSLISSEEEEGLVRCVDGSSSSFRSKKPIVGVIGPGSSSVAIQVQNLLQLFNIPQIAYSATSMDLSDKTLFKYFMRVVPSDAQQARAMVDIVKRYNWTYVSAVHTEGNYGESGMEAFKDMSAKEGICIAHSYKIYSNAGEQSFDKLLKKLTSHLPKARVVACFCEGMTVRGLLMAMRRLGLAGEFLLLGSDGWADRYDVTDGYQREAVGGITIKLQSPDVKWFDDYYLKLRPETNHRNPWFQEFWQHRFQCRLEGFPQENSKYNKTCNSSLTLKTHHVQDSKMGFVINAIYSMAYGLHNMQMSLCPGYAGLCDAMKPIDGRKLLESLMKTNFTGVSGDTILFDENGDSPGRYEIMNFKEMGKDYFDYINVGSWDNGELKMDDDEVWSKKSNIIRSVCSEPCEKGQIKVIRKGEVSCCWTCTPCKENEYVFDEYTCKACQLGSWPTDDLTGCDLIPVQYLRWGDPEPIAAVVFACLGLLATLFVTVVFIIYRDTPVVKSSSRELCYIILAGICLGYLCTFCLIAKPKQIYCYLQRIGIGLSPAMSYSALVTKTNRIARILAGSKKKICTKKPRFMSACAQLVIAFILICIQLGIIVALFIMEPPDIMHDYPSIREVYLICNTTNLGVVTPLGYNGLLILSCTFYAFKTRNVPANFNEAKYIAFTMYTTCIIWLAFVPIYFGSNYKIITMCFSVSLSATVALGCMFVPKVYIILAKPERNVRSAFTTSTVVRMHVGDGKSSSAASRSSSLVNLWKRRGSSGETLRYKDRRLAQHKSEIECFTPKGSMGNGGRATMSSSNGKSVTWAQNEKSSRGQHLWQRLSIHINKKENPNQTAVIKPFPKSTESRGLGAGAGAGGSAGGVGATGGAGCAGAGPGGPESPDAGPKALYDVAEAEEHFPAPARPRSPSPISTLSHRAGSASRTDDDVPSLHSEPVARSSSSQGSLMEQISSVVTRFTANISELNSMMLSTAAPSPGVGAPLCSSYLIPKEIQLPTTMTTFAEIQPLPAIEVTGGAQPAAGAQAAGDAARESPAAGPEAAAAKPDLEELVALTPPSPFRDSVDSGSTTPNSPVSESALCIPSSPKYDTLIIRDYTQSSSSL

SMILES	IC50 [1]	remaining at 0.5 h, 1 µM [2]	remaining at 0.5 h, 1 µM [3]	solubility [4]	IC50 (Cytochrome P450 1A2)	IC50 (Cytochrome P450 2A6)	IC50 (Cytochrome P450 2C8)	IC50 (Cytochrome P450 2C9)	IC50 (Cytochrome P450 2C19)	IC50 (Cytochrome P450 2D6)	IC50 (Cytochrome P450 3A4)	Activity [5]	Papp [6]	efflux ratio (P-gp)	IC50 [7]	Activity (Salmonella typhimurium)	half-life [8]	clearance [10]	Vd [12]	AUC [14]	other results
O=C(c1cc(F)cc(Cl)c1)N1CCc2oc(-c3ccc(F)cn3)nc2C1	38 nM	91 to 97%	91 to 97%	6 µg/mL (≈ 16 µM)	> 50 µM	> 50 µM	> 50 µM	> 50 µM	> 50 µM	> 50 µM	> 50 µM	Not Active	37.1 ×10⁻⁶ cm/s	0.9	19 µM	Non-Toxic	966 min	1.7 mL/min/kg	2.1 L/kg	34500 ng·h/mL	half-life [9]: 534 min; clearance [11]: 3.8 mL/min/kg; Vd [13]: 2.4 L/kg; AUC [15]: 5090 ng·h/mL; AUC [16]: 62400 ng·h/mL; AUC [17]: 4340 ng·h/mL; Cmax [18]: 1730 ng/mL; Cmax [19]: 2880 ng/mL; bioavailability [20]: 80%; bioavailability [21]: 61%; Activity (Rattus norvegicus [22]): Dose-dependent effect; Occ (Rattus norvegicus [23]): 48%
O=C(c1ccccc1)N1CCc2oc(-c3ccc(F)cn3)nc2C1	54 nM	91 to 97%	91 to 97%	16 µg/mL (≈ 49.5 µM)	> 50 µM	> 50 µM	> 50 µM	> 50 µM	> 50 µM	> 50 µM	> 50 µM	Not Active	34.5 ×10⁻⁶ cm/s	1.1	64 µM	Non-Toxic	288 min	4.2 mL/min/kg	1.6 L/kg	37400 ng·h/mL	half-life [24]: 126 min; clearance [25]: 4.6 mL/min/kg; Vd [26]: 0.73 L/kg; AUC [27]: 1290 ng·h/mL; AUC [15]: 2060 ng·h/mL; AUC [16]: 57100 ng·h/mL; Cmax [18]: 2750 ng/mL; Cmax [19]: 3900 ng/mL; bioavailability [20]: 102%; bioavailability [21]: 139%; Activity (Rattus norvegicus [22]): Dose-dependent effect; Occ (Rattus norvegicus [28]): 50%; Activity (Rattus norvegicus [29]): Active; Activity (Rattus norvegicus [30]): Non-Toxic
